This assay concerns the target hMAT2A (Homo sapiens (Human), UniProt P31153). As to the kind of experiment: Malachite Green Assay (MAT2A enzyme inhibition). To be noted: hMAT2A 50 nM, substrates 500 uM each. The assay is classed as biochemical. On the procedure:
The ability of the compound of present disclosure to inhibit MAT2A enzyme was determined using the Malachite Green or Phosphate Sensor Fluorescence Assay described below.
L-methionine Substrate: Alfa Aesar catalog #J61904
ATP Substrate: Alfa Aesar cat #J60336
Malachite Green Detection Reagent: Millipore Sigma catalog #MAK307-1KT
Assay buffer: 50 mM Tris, pH 7.5/50 mM KCl/10 mM MgCl2/0.01% Brij-35/1 mM DTT/0.1% BGG
The plate was centrifuged at 1000 rpm for 1 minute and then incubated at room temperature for 1 hour. 5 μL of malachite green detection reagent was added to all the test wells and the plate was centrifuged at 1000 rpm for 1 minute and then incubated at room temperature for 30 minutes. The plate was read for absorbance at 620 nm on a plate reader (e.g., Infinite M1000).

Chain of hMAT2A (P31153 whole entry): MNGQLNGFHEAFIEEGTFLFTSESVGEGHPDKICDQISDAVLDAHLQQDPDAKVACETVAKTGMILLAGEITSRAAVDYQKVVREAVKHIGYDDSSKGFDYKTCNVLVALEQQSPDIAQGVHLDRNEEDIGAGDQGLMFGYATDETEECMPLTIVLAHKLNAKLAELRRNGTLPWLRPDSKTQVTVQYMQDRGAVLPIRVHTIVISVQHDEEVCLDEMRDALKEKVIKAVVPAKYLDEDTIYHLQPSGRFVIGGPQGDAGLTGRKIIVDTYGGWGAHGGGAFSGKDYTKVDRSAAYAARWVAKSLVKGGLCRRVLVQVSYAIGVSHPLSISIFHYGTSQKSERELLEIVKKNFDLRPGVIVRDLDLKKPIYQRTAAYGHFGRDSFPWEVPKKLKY

As usually defined, the IC50 is the concentration that gives 50% inhibition. A lower IC50 goes with higher potency. The substance “7-chloro-4-(dimethylamino)-1-(3-(2-phenoxyethyl)phenyl)quinazolin-2(1H)-one [Example 10]” had an IC50 of 200 to 500 nM.

The values above are taken from patent US11084798B1, “2-oxoquinazoline derivatives as methionine adenosyltransferase 2A inhibitors” (IDEAYA BIOSCIENCES, INC., priority 2018, dated 2021).
